The values below come from US8822449B2, “Substituted aminoindanes and analogs thereof, and the pharmaceutical use thereof” (Sanofi, priority 2008, dated 2014).

In this experiment the target is T1, sodium-proton exchanger of subtype 3 (NHE3) (Homo sapiens, UniProt P48764).
T1 construct: expressed in transfected cells
T1 sequence (P48764 26-834): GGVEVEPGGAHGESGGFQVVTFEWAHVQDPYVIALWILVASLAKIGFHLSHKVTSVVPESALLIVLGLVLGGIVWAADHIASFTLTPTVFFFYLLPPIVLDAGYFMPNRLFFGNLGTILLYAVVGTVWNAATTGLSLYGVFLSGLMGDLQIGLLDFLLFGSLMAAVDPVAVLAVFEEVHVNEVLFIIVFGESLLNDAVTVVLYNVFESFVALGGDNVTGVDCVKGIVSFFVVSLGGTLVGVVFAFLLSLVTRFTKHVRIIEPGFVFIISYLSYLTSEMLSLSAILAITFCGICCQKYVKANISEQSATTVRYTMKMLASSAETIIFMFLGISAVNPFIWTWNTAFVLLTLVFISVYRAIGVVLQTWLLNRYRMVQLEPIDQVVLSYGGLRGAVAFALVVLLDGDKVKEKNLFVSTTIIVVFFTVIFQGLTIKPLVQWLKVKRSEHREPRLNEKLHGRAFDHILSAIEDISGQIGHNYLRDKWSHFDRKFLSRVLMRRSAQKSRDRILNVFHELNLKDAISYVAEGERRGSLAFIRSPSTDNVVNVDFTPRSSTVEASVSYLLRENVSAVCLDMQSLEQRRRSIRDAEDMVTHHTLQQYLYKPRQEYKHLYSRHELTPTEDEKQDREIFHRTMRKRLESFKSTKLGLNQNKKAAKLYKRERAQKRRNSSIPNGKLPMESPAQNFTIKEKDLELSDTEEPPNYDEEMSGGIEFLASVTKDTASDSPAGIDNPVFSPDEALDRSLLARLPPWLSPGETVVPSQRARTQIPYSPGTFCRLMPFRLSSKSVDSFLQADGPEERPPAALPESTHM
In words: Recovery of intracellular pH (pHi) after acidification in LAP1 cells stably expressing NHE3 (BCECF fluorescence, FLIPR). The experiment is classed as cell-based. The note with it: LAP1 cells stably expressing NHE3; pH recovery after acidification; range 1 is % inhibition at 10 μM; read-out: Activity range (inhibitory effect on NHE3).

`CC(=O)Nc1cccc(O[C@H]2c3ccccc3CC[C@@H]2N2CCC[C@@H](N)C2)c1` (racemic) [Example 676, N-{3-[rac-trans-(1,2)-2-((R)-3-aminopiperidin-1-yl)-1,2,3,4-tetrahydronaphthalen-1-yloxy]phenyl}acetamide]: the IC50 was in the range of 1 to 10 µM.

As for `CS(=O)(=O)c1ccc(O[C@H]2c3cc(Cl)cc(Cl)c3C[C@@H]2N2CCC[C@H]2CN2CCCC2)cc1` [Example 195, (S)-1-[trans-(1S,2S)-4,6-dichloro-1-(4-methanesulfonylphenoxy)indan-2-yl]-2-pyrrolidin-1-ylmethylpyrrolidine], the IC50 is less than 1 µM. On the same count and under the same terms, with `Cc1cc(O[C@H]2c3cc(F)cc(Cl)c3C[C@@H]2N2CCNCC2)ccc1S(C)(=O)=O` (racemic) [Example 281, 1-[rac-trans-(1,2)-4-chloro-6-fluoro-1-(4-methanesulfonyl-3-methylphenoxy)indan-2-yl]piperazine] the figure was less than 1 µM; with `N#Cc1ccc(O[C@@H]2c3ccccc3C[C@H]2N2C[C@H]3CNC[C@H]3C2)c(Cl)c1` (racemic) [Example 445, 3-chloro-4-[rac-trans-(1,2)-2-(hexahydropyrrolo[3,4-c]pyrrol-2-yl)indan-1-yloxy]benzonitrile], less than 1 µM; with `CS(=O)(=O)c1ccc(O[C@H]2c3cc(Cl)cc(Cl)c3C[C@@H]2N2CCCN(CCO)CC2)cc1` (racemic) [Example 383, 2-{4-[rac-trans-(1,2)-4,6-dichloro-1-(4-methanesulfonylphenoxy)indan-2-yl]-[1,4]diazepan-1-yl}-ethanol], less than 1 µM.

With `Cn1ccn(-c2ccc(F)c(O[C@H]3c4cc(Cl)cc(Cl)c4C[C@@H]3N3CC[C@@H](O)C3)c2)c1=O` [Example 313, 1-{3-[(1S,2S)-4,6-dichloro-2-((R)-3-hydroxypyrrolidin-1-yl)indan-1-yloxy]-4-fluorophenyl}-3-methyl-1,3-dihydroimidazol-2-one], the IC50 is less than 1 µM. Turning to `CC(=O)Nc1cccc(O[C@H]2c3cc(Cl)cc(Cl)c3C[C@@H]2N2CC[C@@H](O)C2)c1` [Example 696, N-{3-[trans-(1S,2S)-4,6-dichloro-2-((R)-3-hydroxypyrrolidin-1-yl)indan-1-yloxy]phenyl}acetamide], the IC50 is less than 1 µM. Still for that read-out and setting: the figure for `CN(C)CCN(C)[C@H]1Cc2c(Cl)cc(Cl)cc2[C@@H]1Oc1ccc(S(C)(=O)=O)cc1` [Example 671, N-[trans-(1S,2S)-4,6-dichloro-1-(4-methanesulfonylphenoxy)indan-2-yl]-N,N′,N′-trimethyl-ethane-1,2-diamine] is less than 1 µM; for `CS(=O)(=O)c1cc(Cl)c(O[C@H]2c3ccccc3C[C@@H]2N2CCCC2)c(Cl)c1` (racemic) [Example 264, 1-[rac-trans-(1,2)-1-(2,6-dichloro-4-methanesulfonylphenoxy)indan-2-yl]pyrrolidine] it is 1 to 10 µM. For the compound `CCCC1(N)CCCN([C@H]2Cc3c(Cl)cc(Cl)cc3[C@@H]2Oc2cccc(NC(C)=O)c2)C1` (mixture of isomers) [Example 693, N-{3-[trans-(1S,2S)-2-(3-amino-3-propylpiperidin-1-yl)-4,6-dichloroindan-1-yloxy]phenyl}acetamide], the IC50 is less than 1 µM. As to `NC(=O)Nc1cccc(O[C@@H]2c3ccccc3C[C@H]2N2CCC[C@H](N)C2)c1` (racemic) [Example 232, {3-[rac-trans-(1,2)-2-((S)-3-aminopiperidin-1-yl)indan-1-yloxy]phenyl}urea], the IC50 lay in the range of 1 to 10 µM. The same measure, in the same setting: with `COc1cc(Cl)cc(O[C@@H]2c3ccccc3C[C@H]2N2CCC(CN)CC2)c1` (racemic) [Example 612, C-{1-[rac-trans-(1,2)-1-(3-chloro-5-methoxyphenoxy)indan-2-yl]piperidin-4-yl}methylamine] the figure was 1 to 10 µM; with `Clc1cc(Cl)c2c(c1)[C@H](Oc1ccc(-n3cncn3)cc1)[C@@H](N1CCNCC1)C2` (racemic) [Example 276, 1-[rac-trans-(1,2)-4,6-dichloro-1-(4-[1,2,4]triazol-1-ylphenoxy)indan-2-yl]piperazine], less than 1 µM; with `N#Cc1ccc(O[C@@H]2c3ccccc3C[C@H]2N2CCC[C@@H](N)C2)cc1Cl` (racemic) [Example 521, 4-[rac-trans-(1,2)-2-((R)-3-aminopiperidin-1-yl)indan-1-yloxy]-2-chlorobenzonitrile], 1 to 10 µM. `CS(=O)(=O)c1ccc(O[C@H]2c3ccccc3C[C@@H]2CN2CCOCC2)cc1` (racemic) [Example 487, 4-[1-(4-methanesulfonylphenoxy)indan-2-ylmethyl]morpholine]: the inhibition at 10 µM fell in the range of 20 to 50%. As to `N#Cc1ccc(O[C@H]2c3ccccc3CC[C@@H]2N2CCC[C@@H](N)C2)cc1` (racemic) [Example 516, 4-[rac-trans-(1,2)-2-((R)-3-aminopiperidin-1-yl)-1,2,3,4-tetrahydronaphthalen-1-yloxy]benzonitrile], the IC50 was less than 1 µM.

Take `CN(C)Cc1cccc(O[C@@H]2c3ccccc3C[C@H]2N2CCC[C@H](N)C2)c1` (racemic) [Example 167, (S)-1-[rac-trans-(1,2)-1-(3-dimethylaminomethylphenoxy)indan-2-yl]piperidin-3-ylamine]: the IC50 lay within 1 to 10 µM. On the same count and under the same terms, the figure for `NS(=O)(=O)c1ccc(OC2c3ccccc3CC2N2CCCC2)cc1` (racemic) [Example 466, 4-(rac-trans-(1,2)-2-pyrrolidin-1-ylindan-1-yloxy)benzenesulfonamide] is less than 1 µM; for `N[C@@H]1CCCN([C@H]2CCc3ccccc3[C@@H]2Oc2cccc3[nH]nnc23)C1` (racemic) [Example 29, (R)-1-[rac-trans-(1,2)-1-(1H-benzotriazol-4-yloxy)-1,2,3,4-tetrahydronaphthalen-2-yl]piperidin-3-ylamine] it is 1 to 10 µM. Consider `CC(=O)Nc1cccc(O[C@H]2c3ccccc3C[C@@H]2N2CCNCC2)c1` (racemic) [Example 639, N-[3-(rac-trans-(1,2)-2-piperazin-1-ylindan-1-yloxy)phenyl]acetamide], for which the inhibition at 10 µM lay in the range of 20 to 50%. For `Cc1nnc(C)n1-c1ccc(O[C@H]2c3cc(Cl)cc(Cl)c3C[C@@H]2N2CC[C@H](O)C2)cc1` [Example 206, (S)-1-{trans-(1S,2S)-4,6-dichloro-1-[4-(3,5-dimethyl-[1,2,4]triazol-4-yl)phenoxy]indan-2-yl}pyrrolidin-3-ol], the IC50 was less than 1 µM. The same measure, in the same setting: the figure for `NS(=O)(=O)c1ccc(O[C@H]2c3cc(Cl)cc(F)c3C[C@@H]2NC2CCCC2)c(F)c1` [Example 750, 4-(trans-(1S,2S)-6-Chloro-2-cyclopentylamino-4-fluoro-indan-1-yloxy)-3-fluoro-benzenesulfonamide] is 1 to 10 µM. For `COc1ccc(C)cc1O[C@@H]1c2ccccc2C[C@H]1N1CCC(CN)C1` (mixture of isomers) [Example 607, C-{1-[rac-trans-(1,2)-1-(2-methoxy-5-methylphenoxy)indan-2-yl]pyrrolidin-3-yl}methylamine], the IC50 lay in the range of 1 to 10 µM.

Regarding `CCCc1ccc(NC(C)=O)cc1O[C@H]1c2ccccc2CC[C@@H]1N1CCC[C@H](N)C1` (racemic) [Example 683, N-{3-[rac-trans-(1,2)-2-((S)-3-aminopiperidin-1-yl)-1,2,3,4-tetrahydronaphthalen-1-yloxy]-4-propylphenyl}acetamide], the IC50 lay within 1 to 10 µM. Still for that read-out and setting: with `CS(=O)(=O)c1ccc(O[C@H]2c3cc(Cl)cc(Cl)c3C[C@@H]2N2CC[C@H](F)C2)cc1` [Example 196, (S)-1-[trans-(1S,2S)-4,6-dichloro-1-(4-methanesulfonylphenoxy)indan-2-yl]-3-fluoropyrrolidine] the figure was less than 1 µM; with `CC(=O)Nc1cccc(O[C@H]2c3ccccc3C[C@@H]2N2CCC[C@@H](N)C2)c1` [Example 691, N-{3-[trans-(1S,2S)-2-((R)-3-aminopiperidin-1-yl)indan-1-yloxy]phenyl}acetamide], less than 1 µM. For the compound `CSc1ccc(O[C@H]2c3ccccc3CC[C@@H]2N2CCC[C@H](N)C2)cc1` (racemic) [Example 183, (S)-1-[rac-trans-(1,2)-1-(4-methylsulfanylphenoxy)-1,2,3,4-tetrahydronaphthalen-2-yl]piperidin-3-ylamine], the inhibition at 10 µM fell in the range of 20 to 50%. As for `N[C@H]1CCCN([C@H]2CCc3ccccc3[C@@H]2Oc2cnc3ccccc3c2)C1` (racemic) [Example 192, (S)-1-[rac-trans-(1,2)-1-(quinolin-3-yloxy)-1,2,3,4-tetrahydronaphthalen-2-yl]piperidin-3-ylamine], the inhibition at 10 µM lay within 20 to 50%. As to `Cc1nnc(C)n1-c1ccc(O[C@H]2c3cc(Cl)cc(F)c3C[C@@H]2N2CC[C@@H](O)C2)cc1` [Example 144, (R)-1-{trans-(1S,2S)-6-chloro-1-[4-(3,5-dimethyl-[1,2,4]triazol-4-yl)phenoxy]-4-fluoroindan-2-yl}pyrrolidin-3-ol], the IC50 was less than 1 µM.
